According to patent publication EP0736009B1, “N-OXIDES OF 4-ARYLPIPERAZINES AND 4-ARYLPIPERIDINES AS ANTIPSYCHOTIC DRUGS” (ORTHO PHARMACEUTICAL CORPORATION, priority 1993, dated 1995):

Key:
Rat = assay: Block of Conditioned Avoidance Responding (Rat) test (CAR); assay type: in vivo, Male, Fischer 344 rats; details: for Loss of escape: % failures to escape (group mean), measure of general sedative potential, at CAR 15 mg/kg ip; for % CAR at 15 mg/kg: mean % change in CAR vs vehicle pretreatment day, 15 mg/kg ip, negative number = blockade of CAR
Source text: The antipsychotic activity of the compounds of the invention may be determined by the Block of Conditioned Avoidance Responding (Rat) test (CAR), references being Cook, L. and E. Weidley in Ann. N.Y. Acad. Sci., 1957, 6, 740-752, and Davidson, A.B. and E. Weidley in Life Sci., 1976, 18, 1279-1284. A reading of -20% in the CAR test was generally taken to represent a minimum value for a compound to be designated as active at a given dose. In addition, the affinity of the compounds for several receptors found in the central nervous system was evaluated; the affinity for the D-2 (dopamine-2) receptors is also listed in Table 1. As modulation of this receptor is generally recognized to be beneficial in the treatment of schizophrenia (G. P. Reynolds Trends Pharmacol. Sci. 1992, 13, 116), affinity for this receptor indicates potential utility for the compounds. […] Block of Conditioned Avoidance Responding (Rat) Apparatus: Rat operant chambers, housed within sound attenuated booths, both from […] Instruments Ltd., were used in this test. The test chamber (8" H x […] D) is constructed of aluminum and plexiglass with floor grid bars of stainless-steel (1/8" O.D.) spaced 9/16" apart. A stainless-steel operation level 1-1/2" wide projects 3/4" into the chamber and is positioned 2-2/8" above the grid floor. The shock stimulus is delivered via the grid floor by a Coulbourn Instruments solid state module. The parameters of the test and the collection of data are controlled automatically. Training: Male, Fischer 344 rats obtained from Charles River (Kingston, NY) weighing more than 200 g, are individually housed with chow and water provided ad libitum. The rats are trained for two weeks to approach criterion levels in the avoidance test (90% avoidance rate). One-hour training sessions are run at about the same time each day for four or five days a week. The training session consists of 120 trials, with the conditioned stimuli presented every 30 sec. A trial begins with presentation of the conditioned stimuli (a light and a tone). If the rat responds by depressing the operant lever during the 15-second presentation of the conditioned stimuli, the trial is terminated and the animal is credited with a CAR. Failure to respond during the conditioned stimuli causes the presentation of the unconditioned stimulus (UCS), a 0.7 mA shock which is accompanied by a light and tone for five seconds. If the rat depressed the lever within the ten-second period, the shock and trial are terminated and an escape response recorded. If the rat fails to depress the lever during the UCS (shock), the trial is terminated after ten seconds of shock and the absence of a response is scored as a failure to escape. […] presses have no effect. If a rat performs at the 90% CAR level for two weeks, it is then run twice a week on the test schedule (see below) until baseline performance stabilized. Before any drug is administered, two weeks of CAR at a rate of 90% or better is required. The percent change in CAR on the drug treatment day compared to vehicle pretreatment day is the key measure. The percent change (% change) in CAR is determined using the following formula: % change CAR = ((% CAR for Day 2/% CAR for Day 1) x 100)-100 [formula] A negative number indicates a blockade of CAR, whereas a positive number would indicate increased CAR. The test results are reported as the mean % change for the group of rats. Failure to escape, a measure of the general sedative potential of the compound, was calculated for each animal as follows: % Failures = # of Failures to Escape/# of trials [formula] The % failures, viz., loss of escape, is also reported as a group mean. Failures to escape are monitored closely and a session is terminated if ten failures occurred. ED50 values and 95% confidence limits are calculated using linear regression analysis. […]

[1] = target: T1, D-2 (dopamine-2) receptors (Rattus norvegicus, UniProt P61169); assay: Dopamine D2 receptor binding assay (3H-spiperone, striatal P2 fraction); set-up: species or system male, Wistar rats; details: rat striatum P2 fraction; 3H-spiperone 0.05 nM; 45 min at 37°C
T1 construct: The D2 assay employed a P2 fraction from the striatum; from tissue; host or cells: rat striatum, P2 fraction (synaptosomal membranes)
T1 sequence (P61169 whole entry): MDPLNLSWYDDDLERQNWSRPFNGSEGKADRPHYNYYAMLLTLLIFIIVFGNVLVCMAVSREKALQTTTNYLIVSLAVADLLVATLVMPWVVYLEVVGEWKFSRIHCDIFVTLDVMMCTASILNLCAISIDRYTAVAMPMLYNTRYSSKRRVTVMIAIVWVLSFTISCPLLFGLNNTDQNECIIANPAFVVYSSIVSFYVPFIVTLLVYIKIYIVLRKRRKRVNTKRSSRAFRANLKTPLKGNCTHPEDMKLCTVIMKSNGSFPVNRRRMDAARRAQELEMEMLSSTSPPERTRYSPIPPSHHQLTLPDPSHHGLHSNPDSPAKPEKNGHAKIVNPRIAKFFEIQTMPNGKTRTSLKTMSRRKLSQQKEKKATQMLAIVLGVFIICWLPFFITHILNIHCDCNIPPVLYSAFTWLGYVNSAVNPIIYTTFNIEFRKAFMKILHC
Source text: The antipsychotic activity of the compounds of the invention may be determined by the Block of Conditioned Avoidance Responding (Rat) test (CAR), references being Cook, L. and E. Weidley in Ann. N.Y. Acad. Sci., 1957, 6, 740-752, and Davidson, A.B. and E. Weidley in Life Sci., 1976, 18, 1279-1284. A reading of -20% in the CAR test was generally taken to represent a minimum value for a compound to be designated as active at a given dose. In addition, the affinity of the compounds for several receptors found in the central nervous system was evaluated; the affinity for the D-2 (dopamine-2) receptors is also listed in Table 1. As modulation of this receptor is generally recognized to be beneficial in the treatment of schizophrenia (G. P. Reynolds Trends Pharmacol. Sci. 1992, 13, 116), affinity for this receptor indicates potential utility for the compounds. […].
The dopamine D2 binding activity of compounds was determined using a P2 fraction (synaptosomal membranes) prepared from male, Wistar rats. The D2 assay employed a P2 fraction from the striatum, the ligand ^3H-spiperone at a concentration of 0.05 nM, and 1 mM haloperidol as a blank determinant. […].
The data from this assay were analyzed by calculating the percent inhibition of the binding of the tritiated ligands by given concentrations of the test compound. KI values, where given, were obtained from the logit analysis of concentration-inhibition curves.

What does the source list for `CC(C)Oc1ccccc1C1CC[N+]([O-])(Cc2cccc(C(=O)N3[C@H](C)CCC[C@@H]3C)c2)CC1` (relative stereo) [Compound 3, 1-[3-[[4-[2-(1-Methylethoxy)phenyl]-1-piperidinyl-1-oxide]methyl]benzoyl]-cis-2.6-dimethylpiperidine]?
Loss of escape (Rat): 0.4%; % CAR at 15 mg/kg (Rat): -37.7%; Ki [1]: 371 nM

With `CC(C)Oc1ccccc1[N+]1([O-])CCN(Cc2cccc(C(=O)N3CCCCC3)c2)CC1` [Compound 1, 1-[3-[[4-[2-(1-Methylethoxy)ehenyl]-4-oxide-1-piperazinyl]methyl]benzoyl]piperidine] as the compound, how does the Loss of escape (Rat) read?
The Loss of escape was 44.8%.

What about the “% CAR at 15 mg/kg” value (Rat) of the same compound?
The value was -91.7%.

What about the Ki [1] of the same compound?
Its Ki is 140 nM.

Which Loss of escape (Rat) does the source give for `CC(C)Oc1ccccc1N1CC[N+]([O-])(Cc2cccc(C(=O)N3CCCCC3)c2)CC1` [Compound 2, 1-[3-[[4-[2-(1-Methylethoxy)phenyl]-1-piperazinyl-1-oxide]methyl]benzoyl]piperidine] here?
The Loss of escape was 31.5%.

And the “% CAR at 15 mg/kg” value (Rat)?
The value was -87.6%.

What about the Ki [1] of the same compound?
Its Ki is 355 nM.
